Test results taken from patent EP1984014B1, “USE OF TPO PEPTIDE COMPOUNDS AND PHARMACEUTICAL COMPOSITIONS IN THE TREATMENT OF ANEMIA” (Janssen Pharmaceutica NV, priority 2006, dated 2007).

Key:
[1] = test system: mice treated with carboplatin; test: Example 1: dose response of PEGylated TPO Compound No. 1 given one day after carboplatin, anemia in mice; type: in vivo, BALB/c mouse
Experimental: (§1) The effects of PEGylated TPO Compound No. 1 on mice treated with carboplatin were observed. For all examples herein, a 10 mg/ml stock solution of PEGylated TPO Compound No. 1 was prepared in sterile saline. For mixing, the preparation was placed on a gyratory shaker for 15min. at 200 rpm. This method was used to dissolve PEGylated TPO Compound No. 1 without foaming. The stock was filtered using a GV Millex (0.22um) filter. Dosing solutions were then prepared from this stock using sterile saline. The stock and dosing solutions were prepared fresh on the day of use.
The effect of PEGylated TPO Compound No. 1 on the duration and severity of anemia following treatment of mice with carboplatin as determined by changes in hemoglobin levels, red blood cell count and hematocrit, was observed. For this study, increasing amounts of PEGylated TPO Compound No. 1 were administered to mice one day following a carboplatin dose to characterize a possible dose-dependent effect on various red blood cell parameters.
The groups of mice were treated with either carboplatin or vehicle (Phosphate Buffered Saline, PBS) by intraperitoneal administration on Days -2 and -1 as delineated below. The optimal dose of carboplatin used to induce thrombocytopenia in the BALB/c mouse strain was previously determined to be a fractionated total dose of 120mg/kg given as two consecutive daily injections (i.e., 2x60mg/kg). One day following the second dose of carboplatin, groups of mice were treated with PEGylated TPO Compound No. 1 or vehicle (sterile saline, SS, preservative-free 0.9% sodium chloride) by IV (bolus) injection as delineated in Table 1. The dose was administered on a per-weight basis (100ul/10g body weight).
On Days 5, 7, 9 and 11, five mice in each test group were weighed and then euthanised using CO2-asphyxiation and exsanguinations via cardiac puncture. The blood samples were transferred to separate EDTA (lavender-top) microcontainers for hematologic evaluation. Groups of control mice (5) were processed on Days 5 and 11. The data are presented graphically as group means +SEM.

[2] = test system: mice treated with two rounds of carboplatin; test: Example 5: two rounds of high-dose carboplatin, hematocrit and survival of mice; type: in vivo; conditions: of the mice not utilized for hematological evaluation; carboplatin alone versus combination therapy
Experimental: as §1
Groups of mice were treated with two rounds of the chemotherapeutic agent (carboplatin) ten days apart, with each round consisting of two consecutive days of carboplatin (i.e., 70 mg/kg/day administered on Days -1 & 0 and Days 10 & 11) as delineated below. The dose of carboplatin utilized for these survival studies exceeded the maximal tolerated dose for mice (i.e., 120 mg/kg; administered as 60 mg/kg/day on 2 consecutive days). One hour following the second dose of carboplatin in each round (i.e., Day 0 and 11) mice were treated with PEGylated TPO Compound No. 1 (100ug/kg) or vehicle (sterile saline, SS, preservative-free 0.9% sodium chloride) by IV (bolus) injection as delineated below. The dose was administered on a per weight basis (100 ul/10g body weight). […]

[3] = biological target: T1, human TPO receptor, c-mpl (hTPOr) (Homo sapiens, UniProt P40238); test: Example 7: Baf/3 hTPOr fos/lux luciferase reporter assay (relative luminescent units); type: cell-based
T1 construct: expressed in transfected cells
T1 sequence (P40238 26-635): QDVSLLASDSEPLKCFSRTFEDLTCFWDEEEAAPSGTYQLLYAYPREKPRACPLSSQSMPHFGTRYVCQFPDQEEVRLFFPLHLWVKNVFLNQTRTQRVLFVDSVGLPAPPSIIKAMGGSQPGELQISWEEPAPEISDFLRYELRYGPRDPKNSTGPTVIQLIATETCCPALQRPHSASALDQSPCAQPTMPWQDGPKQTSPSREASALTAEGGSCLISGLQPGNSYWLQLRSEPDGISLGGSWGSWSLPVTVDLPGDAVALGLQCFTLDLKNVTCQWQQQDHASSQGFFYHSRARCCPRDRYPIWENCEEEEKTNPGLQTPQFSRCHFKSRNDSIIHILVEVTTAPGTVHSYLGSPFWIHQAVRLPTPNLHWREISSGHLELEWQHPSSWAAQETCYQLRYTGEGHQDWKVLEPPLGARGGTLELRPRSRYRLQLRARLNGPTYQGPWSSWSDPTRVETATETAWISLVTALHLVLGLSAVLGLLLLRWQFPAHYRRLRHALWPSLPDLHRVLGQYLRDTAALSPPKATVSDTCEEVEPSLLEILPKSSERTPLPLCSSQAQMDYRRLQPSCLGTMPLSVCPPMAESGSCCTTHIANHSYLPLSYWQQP
Excerpt: The activity of the peptide compounds can be determined using standard relative luminescent units assay techniques. The assay employs, e.g., murine cells engineered to stably express the human TPO receptor and a luciferase reporter construct driven by the fos promoter. The assay may be performed as follows: Serum deprived Baf/3 hTPOr fos/lux cells expressing the human TPO receptor, c-mpl (hTPOr), and a luciferase reporter construct are exposed to increasing concentrations of either rhTPO or peptide compound for approximately 18 hours. Cells are then incubated in a medium containing a luciferase substrate and the luminescence of the cells is measured using a luminometer.

## Methoxypolyethyleneglycol20000-propionyl-L-Isoleucyl-L-Glutamyl-Glycyl-L-Prolyl-L-Threonyl-L-Leucyl-L-Arginyl-L-Glutaminyl-L-2-Naphthylalanyl-L-Leucyl-L-Alanyl-L-Alanyl-L-Arginyl-Sarcosyl-Ne-(methoxypolyethyleneglycol20000-propionyl-L-Isoleucyl-L-Glutamyl-Glycyl-L-Prolyl-L-Threonyl-L-Leucyl-L-Arginyl-L-Glutaminyl-L-2-Naphthylalanyl-L-Leucyl-L-Alanyl-L-Alanyl-L-Arginyl-Sarcosyl-)-Lysinamide [PEGylated TPO Compound No. 1]
[1]; all doses tested, 11-Day study period
  recovery of the lost body weight: enhanced the recovery of the lost body weight
[1]; appeared to be dose-dependent
  altered appearance and behavior (hunched, flaccid, soiled anogenital areas): decreased the onset, frequency and severity of these signs
[1]; carboplatin 2x60mg/kg ip Days -2 & -1, all doses (300, 1000, 3000ug/kg iv Day 0), by Day 11
  decrease in hemoglobin levels caused by carboplatin: inhibited
[1]; carboplatin 2x60mg/kg ip, 300-3000ug/kg iv Day 0, no statistical evaluation
  decreases in RBC count and hematocrit associated with carboplatin treatment: inhibited
[2]
  mice that died between days 4 and 18: 1
[3]; Baf/3 cells recombinantly expressing human TPO-R, approximately 18 hours
  EC50: ~5 pM
[3]; at the same concentration as TPO
  activation of TPO-R compared with TPO: stronger activation
[3]; increasing concentrations
  activation of Baf/3 cells recombinantly expressing human TPO-R: dose dependent
